Reference: patent publication US11505558B1, “Antiviral heterocyclic compounds” (Enanta Pharmaceuticals, Inc., priority 2019, dated 2022)
pEC50: −log10 of the molar value.

System: genotype A, "Long" strain RSV
Assay: RSV-A assay (CPE, ATPlite readout in Hep-2 cells)
Format: cell-based
Conditions: human respiratory syncytial virus, HEp-2, Hep-2 cells, genotype A "Long" strain RSV, MOI 0.1; read-out: Human RSV-A (“Long” strain) EC50
Summary of the method: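 Protection from RSV-induced cytopathic effect, measured as ATPlite luminescence after 5 days, gave EC50 values. Assay used genotype A Long strain at MOI 0.1 on Hep-2 cells seeded at 8,000/well in DMEM growth media with 10% FBS; compounds tested as 2-fold dilutions in duplicate.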

**Q.** With `COc1cc(C(=O)NC[C@](O)(c2cc3c(c(-c4ccc(F)cc4)n2)OC[C@]3(C)C(=O)NC2CC2)C(F)(F)F)ccc1OCCO` [Example 10] as the compound, how does the pEC50 read?
**A.** > 6.70

**Q.** `Cn1c(=O)n(C)c2cc(C(=O)NC[C@](O)(c3cc4c(c(-c5ccc(F)cc5)n3)OC[C@]4(C)C(N)=O)C(F)(F)F)ccc21` [Example 322] was tested. Which pEC50 did it give?
**A.** < 6.70

**Q.** How did the pEC50 turn out when `COc1cc(C(=O)NC[C@](O)(c2cc3c(c(-c4ccc(F)cc4)n2)OC[C@]3(C)C(N)=O)C(F)(F)F)ccc1-c1cnoc1` [Example 184] was run?
**A.** > 6.70

**Q.** How did the pEC50 turn out when `COc1cc(C(=O)NC[C@](O)(c2cc3c(c(-c4ccc(F)cc4)n2)OC[C@]3(C)C(N)=O)C(F)(F)F)ccc1-c1coc(C)n1` [Example 197] was run?
**A.** < 6.70

**Q.** How did the pEC50 turn out when `C[C@]1(C(N)=O)COc2c1cc([C@@](O)(CNC(=O)c1cc(F)c3nc(N)sc3c1)C(F)(F)F)nc2-c1ccc(F)cc1` [Example 443] was run?
**A.** > 6.70

**Q.** `CC(C)(O)C(F)(F)CNC(=O)[C@@]1(C)COc2c1cc([C@@](O)(CNC(=O)c1cc(OC3CC3)c3ncccc3c1)C(F)(F)F)nc2-c1ccc(F)cc1` [Example 488] was tested. Which pEC50 did it give?
**A.** > 6.70

**Q.** How did the pEC50 turn out when `Cc1ccc(-c2ccc(C(=O)NC[C@](O)(c3cc4c(c(-c5ccc(F)cc5)n3)OC[C@]4(C)C(N)=O)C(F)(F)F)cc2OC2CC2)nc1` [Example 157] was run?
**A.** < 6.70

**Q.** `C[C@]1(C(N)=O)COc2c1cc([C@@](O)(CNC(=O)c1ccc(OC3CC3)c(-c3ccccc3)c1)C(F)(F)F)nc2-c1ccc(F)cc1` [Example 77] was tested. Which pEC50 did it give?
**A.** > 6.70

**Q.** `Cc1ccc2cc(C(=O)NC[C@](O)(c3cc4c(c(-c5ccc(F)cc5)n3)OC[C@]4(C)C(N)=O)C(F)(F)F)cc(NC(=O)NC3CC3)c2n1` [Example 628] was tested. Which pEC50 did it give?
**A.** < 6.70

**Q.** How did the pEC50 turn out when `COc1cc(C(=O)NC[C@](O)(c2cc3c(c(-c4ccc(F)cc4)n2)OC[C@]3(C)C(N)=O)C(F)(F)F)ccc1C#N` [Example 318] was run?
**A.** < 6.70

**Q.** With `COc1cc(C(=O)NC[C@](O)(c2cc3c(c(C#Cc4ccc(F)cc4)n2)OC[C@]3(C)C(N)=O)C(F)(F)F)ccc1OC1CC1` [Example 510] as the compound, how does the pEC50 read?
**A.** < 6.70

**Q.** How did the pEC50 turn out when `C[C@]1(C(N)=O)COc2c1cc([C@@](O)(CNC(=O)c1ccc(OC3CC3)c(-c3ccncc3C(F)(F)F)c1)C(F)(F)F)nc2-c1ccc(F)cc1` [Example 113] was run?
**A.** < 6.70

**Q.** With `COc1cc(C(=O)NC[C@](O)(c2cc3c(c(-c4ccc(F)cc4)n2)OC[C@]3(C)COC(=O)Nc2ccccc2)C(F)(F)F)ccc1OCCO` [Example 6] as the compound, how does the pEC50 read?
**A.** < 6.70

**Q.** `C[C@]1(C(N)=O)COc2c1cc([C@@](O)(CNC(=O)c1cc(OCC(F)F)c3ncccc3c1)C(F)(F)F)nc2-c1ccc(F)cc1` [Example 285] was tested. Which pEC50 did it give?
**A.** > 6.70

**Q.** With `COc1cc(C(=O)NC[C@](O)(c2cc3c(c(-c4ccc(F)cc4)n2)OC[C@]3(C)CNC(=O)C2CC2)C(F)(F)F)ccc1OCCO` [Example 9] as the compound, how does the pEC50 read?
**A.** > 6.70

**Q.** How did the pEC50 turn out when `COc1cc(C(=O)NC[C@](O)(c2cc3c(c(C#Cc4ccccc4)n2)OC[C@]3(C)C(N)=O)C(F)(F)F)ccc1OC1CC1` [Example 515] was run?
**A.** < 6.70

**Q.** `Cc1cnc2c(Nc3ncccn3)cc(C(=O)NC[C@](O)(c3cc4c(c(-c5ccc(F)cc5)n3)OC[C@]4(C)C(N)=O)C(F)(F)F)cc2c1` [Example 346] was tested. Which pEC50 did it give?
**A.** > 6.70

**Q.** `CNC(=O)NCCCNC(=O)[C@@]1(C)COc2c1cc([C@@](O)(CNC(=O)c1cc(OC3CC3)c3ncccc3c1)C(F)(F)F)nc2-c1ccc(F)cc1` [Example 462] was tested. Which pEC50 did it give?
**A.** < 6.70

**Q.** How did the pEC50 turn out when `C[C@]1(C(N)=O)COc2c1cc([C@@](O)(CNC(=O)c1ccc3c(c1)OCC(=O)N3)C(F)(F)F)nc2-c1ccc(F)cc1` [Example 606] was run?
**A.** < 6.70

**Q.** With `COc1cc(C(=O)NCC(O)(c2cc3c(c(-c4ccc(F)cc4)n2)OC[C@]3(C)CN[C@@H](C)C2CC2)C(F)(F)F)ccc1OCCO` (some centres unmarked) [Example 4] as the compound, how does the pEC50 read?
**A.** > 6.70

**Q.** `COc1cc(C(=O)NC[C@](O)(c2cc3c(c(-c4ccc(F)cc4)n2)OC[C@]3(C)C(N)=O)C(F)(F)F)cc2ccc(C(F)(F)F)nc12` [Example 224] was tested. Which pEC50 did it give?
**A.** < 6.70

**Q.** How did the pEC50 turn out when `C[C@]1(C(N)=O)COc2c1cc([C@@](O)(CNC(=O)c1cnc3ccccc3n1)C(F)(F)F)nc2-c1ccc(F)cc1` [Example 237] was run?
**A.** < 6.70

**Q.** How did the pEC50 turn out when `COc1cc(C(=O)NC[C@](O)(c2cc3c(c(-c4ccc(F)cc4)n2)OC[C@]3(C)COC(=O)NC2CC2)C(F)(F)F)ccc1OCCO` (single isomer, unassigned) [Example 7] was run?
**A.** < 6.70

**Q.** With `C[C@]1(C(N)=O)COc2c1cc([C@@](O)(CNC(=O)c1ccc3[nH]ccc3c1)C(F)(F)F)nc2-c1ccc(F)cc1` [Example 311] as the compound, how does the pEC50 read?
**A.** > 6.70

**Q.** `COc1ccc(C(=O)NC[C@](O)(c2cc3c(c(-c4ccc(F)cc4)n2)OC[C@]3(C)C(N)=O)C(F)(F)F)cc1C#N` [Example 319] was tested. Which pEC50 did it give?
**A.** > 6.70

**Q.** `C[C@]1(C(N)=O)COc2c1cc([C@@](O)(CNC(=O)c1ccc(OC3CC3)cc1)C(F)(F)F)nc2-c1ccc(F)cc1` [Example 71] was tested. Which pEC50 did it give?
**A.** > 6.70

**Q.** With `C[C@]1(C(N)=O)COc2c1cc([C@@](O)(CNC(=O)c1ccc(OC3CC3)c(-c3cscn3)c1)C(F)(F)F)nc2-c1ccc(F)cc1` [Example 128] as the compound, how does the pEC50 read?
**A.** > 6.70

**Q.** With `CC(C)(O)CNC(=O)COc1cc(C(=O)NC[C@](O)(c2cc3c(c(-c4ccc(F)cc4)n2)OC[C@]3(C)C(N)=O)C(F)(F)F)cc2cccnc12` [Example 377] as the compound, how does the pEC50 read?
**A.** < 6.70

**Q.** With `CC(C)(O)COc1cc(C(=O)NC[C@](O)(c2cc3c(c(-c4ccc(F)cc4)n2)OC[C@]3(C)C(N)=O)C(F)(F)F)cc2cccnc12` [Example 270] as the compound, how does the pEC50 read?
**A.** < 6.70

**Q.** `Cc1cncc(-c2ccc(C(=O)NC[C@](O)(c3cc4c(c(-c5ccc(F)cc5)n3)OC[C@]4(C)C(N)=O)C(F)(F)F)cc2OC2CC2)c1` [Example 142] was tested. Which pEC50 did it give?
**A.** < 6.70

**Q.** How did the pEC50 turn out when `Cn1ncc2ccc(C(=O)NC[C@](O)(c3cc4c(c(-c5ccc(F)cc5)n3)OC[C@]4(C)C(N)=O)C(F)(F)F)cc21` [Example 300] was run?
**A.** > 6.70

**Q.** `C[C@]1(C(=O)NCCN)COc2c1cc([C@@](O)(CNC(=O)c1cc(OC3CC3)c3ncccc3c1)C(F)(F)F)nc2-c1ccc(F)cc1` [Example 463] was tested. Which pEC50 did it give?
**A.** < 6.70

**Q.** How did the pEC50 turn out when `COc1cc(C(=O)NC[C@](O)(c2cc3c(c(-c4ccc(F)cc4)n2)OC[C@]3(C)C(=O)NC2CCCC2)C(F)(F)F)cc2cccnc12` [Example 47] was run?
**A.** < 6.70

**Q.** With `C[C@@H](O)COc1ccc2cc(C(=O)NC[C@](O)(c3cc4c(c(-c5ccc(F)cc5)n3)OC[C@]4(C)C(N)=O)C(F)(F)F)cc(OC3CC3)c2n1` [Example 405] as the compound, how does the pEC50 read?
**A.** < 6.70

**Q.** `C[C@]1(C(N)=O)COc2c1cc([C@@](O)(CNC(=O)c1cc(OCCO)c3ncccc3c1)C(F)(F)F)nc2-c1ccc(F)cc1` [Example 360] was tested. Which pEC50 did it give?
**A.** < 6.70

**Q.** How did the pEC50 turn out when `C#Cc1nc([C@@](O)(CNC(=O)c2ccc(OC3CC3)c(OC)c2)C(F)(F)F)cc2c1OC[C@]2(C)C(N)=O` [Example 509] was run?
**A.** < 6.70

**Q.** `Cc1cnc2c(NC(=O)C(F)(F)F)cc(C(=O)NC[C@](O)(c3cc4c(c(-c5ccc(F)cc5)n3)OC[C@]4(C)C(N)=O)C(F)(F)F)cc2c1` [Example 554] was tested. Which pEC50 did it give?
**A.** > 6.70

**Q.** With `COc1cccc(C(=O)NC[C@](O)(c2cc3c(c(-c4ccc(F)cc4)n2)OC[C@]3(C)C(N)=O)C(F)(F)F)c1` [Example 309] as the compound, how does the pEC50 read?
**A.** < 6.70

**Q.** `COc1cc(C(=O)NC[C@](O)(c2cc3c(c(C#Cc4ccc(F)c(Cl)c4)n2)OC[C@]3(C)C(N)=O)C(F)(F)F)ccc1OC1CC1` [Example 512] was tested. Which pEC50 did it give?
**A.** < 6.70

**Q.** How did the pEC50 turn out when `COc1cc(C(=O)NC[C@](O)(c2cc3c(c(-c4ccc(F)cc4)n2)OC[C@]3(C)CNC2CC2)C(F)(F)F)cc2cccnc12` [Example 23] was run?
**A.** > 6.70

**Q.** How did the pEC50 turn out when `C[C@]1(C(N)=O)COc2c1cc([C@@](O)(CNC(=O)c1cc(OCCNC(N)=O)c3ncccc3c1)C(F)(F)F)nc2-c1ccc(F)cc1` [Example 359] was run?
**A.** < 6.70
